In PubChem BioAssay (NCI) one finds TGI data, which are given here for 17 molecules.

Test systems include HT29 colon; UO-31 renal; SK-OV-3 ovarian; OVCAR-8 ovarian; SN12C renal; IGROV1 ovarian; MALME-3M melanoma; TK-10 renal.
Holding throughout (assay): inhibition of tumour cell growth, NCI panel, 48 h

SMILES strings stand for the structures.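 48-hour exposure; five concentrations; linearly interpolated endpoints. The concentration for full growth arrest is given as TGI.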

In the case of `CC(C)C(NC(=O)Oc1ccccc1)C(=O)NC1c2c(Br)sc(Br)c2C(=O)C1O` (stereo unspecified), the TGI in the assay with HT29 colon is 7.71 µM; in the assay on UO-31 renal, above 25 µM; in the assay on SK-OV-3 ovarian, above 25 µM; in the assay on OVCAR-8 ovarian, 9.15 µM; with SN12C renal, 10.8 µM; with IGROV1 ovarian it was 8.11 µM. Besides, the TGI in the assay with MALME-3M melanoma was 15.5 µM; in the assay with TK-10 renal it was above 25 µM.
On to `COc1ccc(S(=O)(=O)n2c3c(c4ccccc42)[C@@H]2[C@@H](CCCN2C(=O)CS(=O)c2ccc(C)cc2)[C@H](Cl)C3)cc1` (stereo partly specified), for which the TGI in the assay with HT29 colon, with UO-31 renal, in the assay on SK-OV-3 ovarian, with OVCAR-8 ovarian, with SN12C renal and in the assay on IGROV1 ovarian was above 100 µM in each case. Moreover, the TGI in the assay with MALME-3M melanoma and with TK-10 renal was above 100 µM in each case.
With `CC(C)(CN1CCCCC1)C(/C=C/c1ccc(Cl)cc1)=N\NC(=O)N/N=C(/C=C/c1ccc(Cl)cc1)C(C)(C)CN1CCCCC1`, the TGI was 12.2 µM with HT29 colon; 9.03 µM with UO-31 renal; 25.4 µM in the assay with SK-OV-3 ovarian; 23.1 µM with OVCAR-8 ovarian; 14.6 µM in the assay on SN12C renal; 13.4 µM with IGROV1 ovarian. The TGI was 22.9 µM in the assay with MALME-3M melanoma and 22.5 µM in the assay on TK-10 renal.
In the case of `O=c1c(F)cn(Cc2c(Cl)cccc2Cl)c(=O)n1Cc1c(Cl)cccc1Cl`, the TGI with HT29 colon, with UO-31 renal, with SK-OV-3 ovarian, in the assay on OVCAR-8 ovarian, in the assay with SN12C renal and with IGROV1 ovarian was above 31.6 µM throughout. The TGI in the assay on MALME-3M melanoma and in the assay on TK-10 renal was above 31.6 µM each time.
For `COC(=O)c1ccc(Cc2cc(Cc3ccc(C(=O)OC)cc3)cc(Cc3ccc(C(=O)OC)cc3)c2)cc1`, the TGI in the assay with HT29 colon, in the assay with UO-31 renal, in the assay with SK-OV-3 ovarian, in the assay with OVCAR-8 ovarian, with SN12C renal and with IGROV1 ovarian was above 25 µM each time. The TGI with MALME-3M melanoma and in the assay on TK-10 renal was above 25 µM throughout.
On to `CSC(=O)c1sc(SC)[n+](-c2ccccc2)c1O`, for which the TGI with HT29 colon was 46.5 µM; in the assay with UO-31 renal it was 31.4 µM; in the assay with SK-OV-3 ovarian, above 100 µM; with OVCAR-8 ovarian, 59.7 µM; in the assay with SN12C renal, 38.8 µM; with IGROV1 ovarian, 37.2 µM. Also, the TGI in the assay on MALME-3M melanoma was 56.6 µM; in the assay with TK-10 renal it was 40.3 µM.
As to `Cc1ccc(S(=O)(=O)N2CC2CCCCC=O)cc1` (stereo unspecified), the TGI in the assay with HT29 colon, with UO-31 renal, in the assay with SK-OV-3 ovarian, with OVCAR-8 ovarian, in the assay with SN12C renal and in the assay on IGROV1 ovarian was above 100 µM each time. Further, the TGI in the assay on MALME-3M melanoma and in the assay with TK-10 renal was above 100 µM in each case.
As for `COCOC1/C=C/CCCCC(=O)C(C)C#CC1` (stereo unspecified), the TGI in the assay on HT29 colon was 8.28 µM; in the assay with UO-31 renal, 18.9 µM; in the assay with SK-OV-3 ovarian it was 32.3 µM; with OVCAR-8 ovarian, 17.7 µM; with SN12C renal, 19 µM; in the assay with IGROV1 ovarian it was 18.1 µM. For the same molecule, the TGI with MALME-3M melanoma was 4.95 µM; with TK-10 renal it was 21.6 µM.
`N=c1oc2ccccc2cc1C(=O)NC12CC3CC(CC(C3)C1)C2`: the TGI in the assay with HT29 colon is above 100 µM; in the assay on UO-31 renal, 0.471 µM; in the assay on SK-OV-3 ovarian, 53.5 µM; in the assay with OVCAR-8 ovarian, above 100 µM; in the assay with SN12C renal, above 100 µM; in the assay on IGROV1 ovarian it was above 65.6 µM. In addition, the figures for the TGI with MALME-3M melanoma and in the assay with TK-10 renal were 98.2 µM and 43.5 µM, respectively.
As to `O=c1[nH]c(=O)n(C2COC(CO)C2O)cc1F` (stereo unspecified), the TGI with HT29 colon, in the assay on UO-31 renal, with SK-OV-3 ovarian, in the assay with OVCAR-8 ovarian, with SN12C renal and in the assay with IGROV1 ovarian was above 100 µM in each case. The TGI in the assay with MALME-3M melanoma and in the assay with TK-10 renal was above 100 µM in each case.
On to `CCOC(=O)CCC(NC(=O)C(N)Cc1ccc(N(CCCl)CCCl)cc1)C(=O)OCC` (stereo unspecified), for which the TGI in the assay on HT29 colon was determined as 3.47 µM; in the assay with UO-31 renal, 2.92 µM; in the assay with SK-OV-3 ovarian, 5.3 µM; in the assay with OVCAR-8 ovarian it was 2.4 µM; with SN12C renal, 5.72 µM; with IGROV1 ovarian it was 3.93 µM. The values for the TGI with MALME-3M melanoma and in the assay with TK-10 renal were 0.747 µM and 4.41 µM, respectively.
For `CCOC(=O)C12OC(OCC)(CC1(OCC)OCC)C1(CC1)C2=O` (stereo unspecified), the TGI with HT29 colon, with UO-31 renal, in the assay on SK-OV-3 ovarian, in the assay on OVCAR-8 ovarian, with SN12C renal and in the assay on IGROV1 ovarian was above 100 µM throughout. Further, the TGI with MALME-3M melanoma and in the assay on TK-10 renal was above 100 µM each time.
As to `O=C1c2cccc3cc([N+](=O)[O-])cc(c23)C(=O)N1Nc1ccc([N+](=O)[O-])cc1[N+](=O)[O-]`, the TGI in the assay with HT29 colon was 24.2 µM; in the assay on UO-31 renal it was 33.1 µM; in the assay with SK-OV-3 ovarian it was above 31.6 µM; in the assay on OVCAR-8 ovarian, 21 µM; in the assay on SN12C renal, above 73.5 µM; with IGROV1 ovarian, 25.5 µM. The figures for the TGI in the assay on MALME-3M melanoma and with TK-10 renal were above 31.6 µM and above 46.4 µM, respectively.
Turning to `C[N+]12C=CC=C1C(N1CCCC1)c1scc(-c3ccc(Br)cc3)c12` (stereo unspecified), the TGI is above 100 µM with HT29 colon; above 100 µM in the assay on UO-31 renal; above 100 µM with SK-OV-3 ovarian; above 100 µM in the assay on OVCAR-8 ovarian; above 35.7 µM in the assay with SN12C renal; 20.8 µM in the assay with IGROV1 ovarian. The TGI in the assay on MALME-3M melanoma was 25.4 µM; in the assay on TK-10 renal, above 100 µM.
As for `COc1ccccc1CC(=O)C(O)(C(F)(F)F)C(F)(F)F`, the TGI in the assay on HT29 colon, with UO-31 renal, in the assay on SK-OV-3 ovarian, in the assay with OVCAR-8 ovarian, in the assay with SN12C renal and in the assay with IGROV1 ovarian was above 100 µM each time. Further, the TGI in the assay with MALME-3M melanoma and with TK-10 renal was above 100 µM in each case.
Turning to `O=C(O)Cc1ccc([N+](=O)[O-])cc1[N+](=O)[O-]`, the TGI in the assay with HT29 colon, with UO-31 renal, in the assay on SK-OV-3 ovarian, in the assay with OVCAR-8 ovarian, with SN12C renal and with IGROV1 ovarian was above 100 µM each time. The TGI in the assay with MALME-3M melanoma and with TK-10 renal was above 100 µM throughout.
As to `O=C(O)C1C2c3ccccc3C(c3ccccc32)C1C(=O)NCC1CC1` (stereo unspecified), the TGI in the assay on HT29 colon, in the assay with UO-31 renal, with SK-OV-3 ovarian, in the assay on OVCAR-8 ovarian, with SN12C renal and in the assay on IGROV1 ovarian was above 100 µM each time. The TGI with MALME-3M melanoma and in the assay with TK-10 renal was above 100 µM each time.
